Common to all, as to test: inhibition of tumour cell growth, NCI panel, 48 h
Experiment [1] relates to A549.
Experiment [2] relates to NCI/ADR-RES.
Experiment [3] deals with HCT-15.
Experiment [4] concerns KM12.
The subject of experiment [5] is OVCAR-5.
Experiment [6] concerns CAKI-1.
The subject of experiment [7] is OVCAR-4.
Experiment [8] deals with PC-3.
Experiment [9] relates to Malme-3M.
The subject of experiment [10] is NCI-H460.
For experiment [11], the system named is U-251.
The test system of experiment [12] is ACHN.
Experiment [13] relates to HCT-116.
Experiment [14] has as its system NCI-H23.
Experiment [15] relates to HCC 2998.
Experiment [16] has as its system NCI-H226.
Experiment [17] has as its system OVCAR-3.
Experiment [18] has as its system A498.
In experiment [19] the test system is UACC-257.
Experiment [20] concerns UO-31.

Structures are written as SMILES.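 Values below derive from 48-hour exposures of cells grown in 96-well plates, with endpoints linearly interpolated between the two concentrations bracketing the appropriate inhibition level. At the GI50, growth is halved.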 Active and inactive are the calls of the source. No stated cut-off is given here; in the data, active = GI50 up to about 1.1 µM and inactive = higher.

Results on four compounds are retold here after ChEMBL document CHEMBL1201862, “PubChem BioAssay data set” (2004).

Consider `COc1ccc(/C=N/n2c(Cc3ccccc3)n[nH]c2=O)c(OC)c1`, for which the GI50 was > 39.5 µM (inactive) in experiment [1]; 21.5 µM (inactive) in experiment [2]; over 100 µM in experiment [3]; > 100 µM (inactive) in experiment [4]; 49.1 µM (inactive) in experiment [5]; > 51.4 µM (inactive) in experiment [6]. In addition, the GI50 in experiment [7] was > 58.6 µM (inactive); in experiment [8], > 100 µM (inactive); in [9], 59.2 µM (inactive); in [10], > 50.7 µM (inactive); in [11], 22 µM (inactive); in [12], 30.4 µM (inactive). Besides, the GI50 in experiment [13] is 26.2 µM (inactive); in experiment [14] it was 29.4 µM (inactive); in experiment [15] it was > 77.4 µM (inactive); in [16] it was 33.8 µM (inactive); in experiment [17], > 63.5 µM (inactive); in [18], 44.4 µM (inactive). Besides, the GI50 was > 100 µM (inactive) in experiment [19] and > 42.8 µM (inactive) in experiment [20].
As for `Cc1cccc2c(N)c3cccc(C(=O)NCC[N+](C)(C)Cc4ccc([N+](=O)[O-])s4)c3nc12`, the GI50 is 0.404 µM (active) in [1]; 43.8 µM (inactive) in experiment [2]; 3.74 µM in experiment [3]; 9.06 µM (inactive) in experiment [4]; 11.9 µM (inactive) in [5]; 2.37 µM (inactive) in experiment [6]. For the same compound, the GI50 is 8.15 µM (inactive) in experiment [7]; 7 µM (inactive) in experiment [8]; 8.2 µM (inactive) in experiment [9]; 1.57 µM (inactive) in experiment [10]; 2.91 µM (inactive) in experiment [11]; 2.69 µM (inactive) in experiment [12]. Moreover, the GI50 in experiment [13] was 3.83 µM (inactive); in [14], 4.51 µM (inactive); in experiment [15] it was 11.1 µM (inactive); in experiment [16], 6.68 µM (inactive); in experiment [17] it was 9.04 µM (inactive); in [18], 4.65 µM (inactive). The GI50 in [19] was 23.7 µM (inactive); in [20], 11.4 µM (inactive).
As to `NC(=S)NN=C1Cc2ccccc2C1`, the GI50 is > 100 µM (inactive) in experiment [1]; > 100 µM (inactive) in [2]; over 100 µM in experiment [3]; > 100 µM (inactive) in [4]; > 100 µM (inactive) in [5]; > 100 µM (inactive) in [6]. Also, the GI50 in experiment [7], in [8], in [9], in experiment [10], in experiment [11] and in experiment [12] was > 100 µM (inactive) in each case. Also, the GI50 in experiment [13], in experiment [14], in experiment [15], in experiment [16], in experiment [17] and in [18] was > 100 µM (inactive) in each case. For the same compound, the GI50 in experiment [19] and in experiment [20] was > 100 µM (inactive) throughout.
Consider `CCN(CC)C(=S)SNCc1ccc(S(N)(=O)=O)cc1`, for which the GI50 was 12.3 µM (inactive) in experiment [1]; 18.9 µM (inactive) in [2]; 19.1 µM in experiment [3]; 14.9 µM (inactive) in experiment [4]; 14 µM (inactive) in [5]; 14.7 µM (inactive) in experiment [6]. The GI50 is 18.7 µM (inactive) in [7]; 13.1 µM (inactive) in experiment [8]; 15.3 µM (inactive) in [9]; 1.34 µM (inactive) in [10]; 11.2 µM (inactive) in experiment [11]; 15.3 µM (inactive) in experiment [12]. Moreover, the GI50 in experiment [13] was 13.2 µM (inactive); in experiment [14], 19.3 µM (inactive); in experiment [15], 36 µM (inactive); in experiment [16] it was > 38.9 µM (inactive); in experiment [17], 14.4 µM (inactive); in experiment [18], > 57.1 µM (inactive). Moreover, the values for the GI50 in [19] and in [20] were 17.1 µM (inactive) and 13.1 µM (inactive), respectively.
